Among the test systems are OVCAR-5 ovarian; K-562 leukemia; KM12 colon; HT29 colon; HOP-92 NSCLC; SK-OV-3 ovarian; HCT-116 colon; U251 CNS; CCRF-CEM leukemia; COLO 205 colon; OVCAR-3 ovarian; SK-MEL-5 melanoma; BT-549 breast.
What all share (assay): NCI tumour cell line growth inhibition, 48 h

Here are results for eleven compounds from PubChem BioAssay (NCI).

Structures are written as SMILES.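 Results reflect a 48-hour exposure of cells in 96-well plates to compound at five concentrations. At the TGI there is no net growth.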

As for `CO/C=C(/C(=O)OC)[C@@H]1C[C@@H]1c1ccc2ccccc2c1`, the TGI is above 100 µM in the assay with OVCAR-5 ovarian; above 100 µM with K-562 leukemia; 54.6 µM in the assay with KM12 colon; 48.6 µM with HT29 colon; 72.9 µM with HOP-92 NSCLC; 59.4 µM with SK-OV-3 ovarian. Further, the TGI is 44.1 µM in the assay with HCT-116 colon; above 100 µM in the assay with U251 CNS; 63.1 µM in the assay with CCRF-CEM leukemia; 32.9 µM in the assay with COLO 205 colon; 73.9 µM in the assay on OVCAR-3 ovarian; 30.3 µM in the assay with SK-MEL-5 melanoma. The compound also yielded a TGI in the assay on BT-549 breast of 50.5 µM.
Turning to `C#CC1(O)CCC2[C@@H]3CCc4cc(Oc5nc(F)nc(-c6c(C)c(C(=O)OCC)n7ccccc67)n5)ccc4C3CC[C@@]21C` (stereo partly drawn), the TGI with OVCAR-5 ovarian, with K-562 leukemia, in the assay with KM12 colon, in the assay on HT29 colon, with HOP-92 NSCLC and with SK-OV-3 ovarian was above 100 µM each time. In addition, the TGI with HCT-116 colon, in the assay with U251 CNS, with CCRF-CEM leukemia, in the assay with COLO 205 colon, in the assay with OVCAR-3 ovarian and in the assay with SK-MEL-5 melanoma was above 100 µM in each case. The same compound had a TGI in the assay with BT-549 breast above 100 µM.
Regarding `CC1OC(OC2C(O)COC(OC3C(C)OC(OC4C(OC(=O)[C@]56CCC(C)(C)C[C@@H]5C5=CCC7[C@@]8(C)C[C@H](O)[C@H](OC9OC(CO)C(O)C(O)C9O)[C@@](C)(CO)[C@@H]8CC[C@@]7(C)[C@]5(C)CC6)OCC(O)C4O)C(O)C3O)C2O)C(O)C(O)C1O` (stereo partly drawn), the TGI with OVCAR-5 ovarian is 36.4 µM; in the assay with K-562 leukemia, above 100 µM; in the assay on KM12 colon, above 100 µM; in the assay on HT29 colon, 48.8 µM; with HOP-92 NSCLC it was 45.2 µM; in the assay on SK-OV-3 ovarian, 37.8 µM. Also, the TGI in the assay on HCT-116 colon was 57.2 µM; in the assay with U251 CNS it was 54.9 µM; in the assay with CCRF-CEM leukemia, 45.8 µM; with COLO 205 colon it was 38.7 µM; with OVCAR-3 ovarian, 40.6 µM; with SK-MEL-5 melanoma, 39.8 µM. Besides, in the assay with BT-549 breast, the TGI worked out at 45.7 µM.
As to `Cc1ncn(-c2ccccc2O)c1C`, the TGI in the assay with OVCAR-5 ovarian, with K-562 leukemia, in the assay on KM12 colon, with HT29 colon, in the assay with HOP-92 NSCLC and in the assay with SK-OV-3 ovarian was above 100 µM throughout. For the same compound, the TGI with HCT-116 colon, in the assay with U251 CNS, in the assay with CCRF-CEM leukemia, in the assay on COLO 205 colon, in the assay with OVCAR-3 ovarian and in the assay on SK-MEL-5 melanoma was above 100 µM throughout. In the assay on BT-549 breast, this compound showed a TGI above 100 µM.
As to `COC(=O)Nc1nc2ccc(NS(=O)(=O)c3cccs3)cc2[nH]1`, the TGI with OVCAR-5 ovarian is above 100 µM; with K-562 leukemia, above 100 µM; in the assay on KM12 colon, 89.5 µM; in the assay with HT29 colon, above 100 µM; with HOP-92 NSCLC, 70.4 µM; with SK-OV-3 ovarian, 90.6 µM. Also, the TGI in the assay on HCT-116 colon is 47.5 µM; in the assay on U251 CNS it was above 100 µM; with CCRF-CEM leukemia, above 100 µM; in the assay on COLO 205 colon it was above 100 µM; in the assay on OVCAR-3 ovarian, 49.2 µM; in the assay with SK-MEL-5 melanoma it was above 100 µM. Besides, in the assay with BT-549 breast, the TGI was above 100 µM.
With `CC(C)(C)c1cc(/C=C(\C#N)C2=NCCO2)cc(C(C)(C)C)c1O`, the TGI in the assay on OVCAR-5 ovarian was 10 µM; in the assay on K-562 leukemia, 16.5 µM; in the assay on KM12 colon it was 15.6 µM; in the assay with HT29 colon, 11.7 µM; with HOP-92 NSCLC it was 15.2 µM; in the assay on SK-OV-3 ovarian, above 32.9 µM. For the same compound, the TGI in the assay with HCT-116 colon was found to be 11.9 µM; in the assay with U251 CNS, 12 µM; in the assay on CCRF-CEM leukemia, 9.35 µM; with COLO 205 colon, 3.39 µM; with OVCAR-3 ovarian, 7.51 µM; in the assay on SK-MEL-5 melanoma it was 5.62 µM. This compound gave a TGI with BT-549 breast of 12.4 µM.
On to `O=C(O)c1nc2cc(Cl)ccc2[nH]c1=O`, for which the TGI with OVCAR-5 ovarian, in the assay with K-562 leukemia, with KM12 colon, with HT29 colon, in the assay with HOP-92 NSCLC and in the assay on SK-OV-3 ovarian was above 100 µM each time. Moreover, the TGI with HCT-116 colon, in the assay with U251 CNS, in the assay on CCRF-CEM leukemia, with COLO 205 colon, in the assay with OVCAR-3 ovarian and in the assay with SK-MEL-5 melanoma was above 100 µM each time. Besides, the TGI in the assay with BT-549 breast is above 100 µM.
Regarding `CC(C)(C)OC(=O)NCC(CNC(=O)OC(C)(C)C)C(N)=O`, the TGI with OVCAR-5 ovarian, in the assay with K-562 leukemia, in the assay with KM12 colon, in the assay on HT29 colon, with HOP-92 NSCLC and in the assay on SK-OV-3 ovarian was above 100 µM in each case. Also, the TGI in the assay with HCT-116 colon, in the assay with U251 CNS, in the assay with CCRF-CEM leukemia, in the assay on COLO 205 colon, in the assay with OVCAR-3 ovarian and in the assay with SK-MEL-5 melanoma was above 100 µM each time. Also, in the assay with BT-549 breast, the TGI was above 100 µM.
Regarding `COc1cc(C2C=C(c3ccccc3)Oc3cc4c(cc32)OCO4)cc(OC)c1OC` (stereo not drawn), the TGI in the assay on OVCAR-5 ovarian was above 100 µM; with K-562 leukemia it was above 100 µM; in the assay on KM12 colon, above 30.6 µM; in the assay on HT29 colon, above 18.3 µM; in the assay on HOP-92 NSCLC it was above 100 µM; in the assay on SK-OV-3 ovarian, above 100 µM. For the same compound, the TGI in the assay with HCT-116 colon was 9.44 µM; in the assay on U251 CNS, above 100 µM; in the assay on CCRF-CEM leukemia, above 100 µM; in the assay with COLO 205 colon it was above 17.1 µM; in the assay on OVCAR-3 ovarian it was above 100 µM; in the assay on SK-MEL-5 melanoma, above 47.8 µM. The TGI in the assay with BT-549 breast is above 100 µM.
Turning to `COC(=O)c1ccc(NCc2cc(OC)ccc2OC)cc1`, the TGI in the assay with OVCAR-5 ovarian, with K-562 leukemia, in the assay with KM12 colon, with HT29 colon, with HOP-92 NSCLC and in the assay on SK-OV-3 ovarian was above 100 µM each time. The TGI in the assay with HCT-116 colon, with U251 CNS, with CCRF-CEM leukemia, with COLO 205 colon, in the assay on OVCAR-3 ovarian and in the assay with SK-MEL-5 melanoma was above 100 µM throughout. The TGI in the assay with BT-549 breast was above 100 µM.
Turning to `CCOP(=O)(OCC)Oc1c(OC)c2[nH]c(C(=O)OC)cc2c2c(C(=O)O)c[nH]c12`, the TGI in the assay with OVCAR-5 ovarian was above 100 µM; with K-562 leukemia, above 100 µM; in the assay with KM12 colon, 81.3 µM; in the assay on HT29 colon, above 100 µM; in the assay with HOP-92 NSCLC it was above 100 µM; with SK-OV-3 ovarian it was above 100 µM. The TGI in the assay on HCT-116 colon, with U251 CNS, with CCRF-CEM leukemia, in the assay on COLO 205 colon, with OVCAR-3 ovarian and with SK-MEL-5 melanoma was above 100 µM each time. In addition, the TGI in the assay on BT-549 breast was above 100 µM.
